Like-named read-outs stand apart in the source and are kept apart here.

One assay addresses FGFR2 (Homo sapiens (Human), UniProt P21802). Description: FGFR Enzymatic Assay (FRET, peptide phosphorylation), FGFR2. The note with it: read-out: FGFR2 IC50; pre-incubated for 4 hours; ATP 100 uM.
In the next assay the target is FGFR3 (Homo sapiens (Human), UniProt P22607). Description: FGFR Enzymatic Assay (FRET, peptide phosphorylation), FGFR3. The note with it: pre-incubated for 4 hours; ATP 140 μM. In kind it is biochemical.
Chain of FGFR3 (P22607 23-806): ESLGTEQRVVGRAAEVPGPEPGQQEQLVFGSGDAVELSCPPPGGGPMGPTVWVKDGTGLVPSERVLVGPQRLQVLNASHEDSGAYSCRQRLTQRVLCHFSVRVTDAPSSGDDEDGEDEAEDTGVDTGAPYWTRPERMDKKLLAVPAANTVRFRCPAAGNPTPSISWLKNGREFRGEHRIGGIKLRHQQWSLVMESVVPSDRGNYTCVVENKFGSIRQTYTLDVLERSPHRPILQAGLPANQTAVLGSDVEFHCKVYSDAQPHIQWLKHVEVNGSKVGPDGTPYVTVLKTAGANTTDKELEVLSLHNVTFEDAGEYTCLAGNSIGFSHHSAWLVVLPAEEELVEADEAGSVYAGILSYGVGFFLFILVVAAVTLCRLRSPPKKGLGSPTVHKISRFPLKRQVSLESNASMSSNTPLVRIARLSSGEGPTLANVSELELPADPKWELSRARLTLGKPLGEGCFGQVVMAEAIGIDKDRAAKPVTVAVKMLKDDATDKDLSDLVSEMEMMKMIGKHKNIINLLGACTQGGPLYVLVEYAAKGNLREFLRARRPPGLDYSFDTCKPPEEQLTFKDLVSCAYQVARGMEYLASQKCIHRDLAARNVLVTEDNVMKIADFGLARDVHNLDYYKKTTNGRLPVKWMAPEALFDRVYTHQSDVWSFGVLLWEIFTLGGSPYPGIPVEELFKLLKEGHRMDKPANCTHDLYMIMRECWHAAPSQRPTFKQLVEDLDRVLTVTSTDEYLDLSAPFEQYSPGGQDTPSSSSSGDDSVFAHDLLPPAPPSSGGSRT
A further assay addresses FGFR1 (Homo sapiens (Human), UniProt P11362). In words: FGFR Enzymatic Assay (FRET, peptide phosphorylation), FGFR1. The note with it: read-out: FGFR1 IC50; pre-incubated for 4 hours; ATP 210 uM.
A further assay has as its target FGFR4 (Homo sapiens (Human), UniProt P22455). Description: FGFR Enzymatic Assay (FRET, peptide phosphorylation), FGFR4.
The mark [1] stands for this setting: read-out: FGFR4 IC50, pre-incubated for 4 hours, ATP 600 uM.

Chain of FGFR2 (P21802 22-821): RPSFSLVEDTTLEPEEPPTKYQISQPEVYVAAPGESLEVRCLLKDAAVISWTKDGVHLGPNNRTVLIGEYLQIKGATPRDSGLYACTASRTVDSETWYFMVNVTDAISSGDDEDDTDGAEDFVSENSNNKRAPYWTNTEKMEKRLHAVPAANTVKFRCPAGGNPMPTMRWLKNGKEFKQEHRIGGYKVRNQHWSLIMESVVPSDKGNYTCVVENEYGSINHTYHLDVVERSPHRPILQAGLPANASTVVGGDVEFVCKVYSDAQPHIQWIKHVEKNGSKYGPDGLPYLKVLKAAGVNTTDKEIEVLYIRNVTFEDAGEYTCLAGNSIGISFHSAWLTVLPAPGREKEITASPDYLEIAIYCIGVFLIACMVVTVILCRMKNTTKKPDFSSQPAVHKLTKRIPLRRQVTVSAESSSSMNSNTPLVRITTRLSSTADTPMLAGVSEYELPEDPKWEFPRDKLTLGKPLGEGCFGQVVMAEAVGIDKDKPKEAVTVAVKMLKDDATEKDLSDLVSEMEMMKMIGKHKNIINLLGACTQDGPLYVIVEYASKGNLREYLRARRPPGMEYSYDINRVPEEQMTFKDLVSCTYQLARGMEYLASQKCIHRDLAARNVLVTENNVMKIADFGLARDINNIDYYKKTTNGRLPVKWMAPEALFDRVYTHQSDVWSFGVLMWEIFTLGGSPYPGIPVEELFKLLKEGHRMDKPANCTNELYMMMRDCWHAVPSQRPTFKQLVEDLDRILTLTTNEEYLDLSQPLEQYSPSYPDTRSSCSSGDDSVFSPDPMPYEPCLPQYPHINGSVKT
Chain of FGFR4 (P22455 22-802): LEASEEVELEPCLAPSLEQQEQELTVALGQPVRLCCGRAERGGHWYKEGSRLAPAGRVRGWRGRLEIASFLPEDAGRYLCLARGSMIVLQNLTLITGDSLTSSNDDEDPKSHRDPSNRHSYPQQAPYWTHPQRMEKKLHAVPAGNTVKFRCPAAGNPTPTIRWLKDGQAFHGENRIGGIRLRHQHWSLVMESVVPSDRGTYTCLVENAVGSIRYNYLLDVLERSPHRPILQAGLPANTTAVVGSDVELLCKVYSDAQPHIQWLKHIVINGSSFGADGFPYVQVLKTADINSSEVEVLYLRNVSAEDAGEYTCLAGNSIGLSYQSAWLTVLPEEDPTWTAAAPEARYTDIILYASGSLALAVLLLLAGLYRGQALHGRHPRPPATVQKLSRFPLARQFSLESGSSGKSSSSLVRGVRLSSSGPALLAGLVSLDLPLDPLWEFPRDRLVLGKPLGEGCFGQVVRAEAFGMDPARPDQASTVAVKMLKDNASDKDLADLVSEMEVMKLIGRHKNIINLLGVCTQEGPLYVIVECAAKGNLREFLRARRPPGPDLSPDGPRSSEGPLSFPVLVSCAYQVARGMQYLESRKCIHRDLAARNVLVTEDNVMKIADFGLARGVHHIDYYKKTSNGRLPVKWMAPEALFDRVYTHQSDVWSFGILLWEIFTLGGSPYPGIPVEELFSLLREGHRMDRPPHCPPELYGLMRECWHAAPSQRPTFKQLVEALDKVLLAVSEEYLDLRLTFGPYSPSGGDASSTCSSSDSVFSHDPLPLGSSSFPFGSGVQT
Chain of FGFR1 (P11362 22-822): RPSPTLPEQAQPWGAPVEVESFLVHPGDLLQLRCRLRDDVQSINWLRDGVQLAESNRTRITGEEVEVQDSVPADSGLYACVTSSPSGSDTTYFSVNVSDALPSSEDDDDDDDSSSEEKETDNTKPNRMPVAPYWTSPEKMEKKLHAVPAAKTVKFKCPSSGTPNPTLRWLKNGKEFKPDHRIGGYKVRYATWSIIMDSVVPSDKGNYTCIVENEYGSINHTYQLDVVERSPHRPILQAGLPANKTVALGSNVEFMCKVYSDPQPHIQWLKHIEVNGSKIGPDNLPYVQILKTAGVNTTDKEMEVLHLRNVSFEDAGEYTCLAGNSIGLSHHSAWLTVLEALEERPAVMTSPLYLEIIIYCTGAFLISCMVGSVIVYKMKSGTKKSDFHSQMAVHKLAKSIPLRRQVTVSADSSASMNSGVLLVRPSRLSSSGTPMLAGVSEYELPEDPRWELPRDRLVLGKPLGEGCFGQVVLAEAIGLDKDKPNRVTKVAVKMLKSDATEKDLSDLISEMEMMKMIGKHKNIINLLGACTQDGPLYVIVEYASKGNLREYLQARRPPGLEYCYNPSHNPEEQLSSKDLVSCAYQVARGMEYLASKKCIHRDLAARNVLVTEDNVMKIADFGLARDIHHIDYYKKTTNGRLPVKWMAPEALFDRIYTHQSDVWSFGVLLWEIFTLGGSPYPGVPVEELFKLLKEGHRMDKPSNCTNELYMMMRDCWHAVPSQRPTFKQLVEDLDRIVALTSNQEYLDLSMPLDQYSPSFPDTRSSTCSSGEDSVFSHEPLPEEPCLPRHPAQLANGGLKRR

Take `C=CC(=O)NCc1cc2c(cn1)CN(c1c(F)c(OC)cc(OC)c1F)C(=O)N2Cc1cccnc1` [Example 17, N-((3-(2,6-difluoro-3,5-dimethoxyphenyl)-2-oxo-1-(pyridin-3-ylmethyl)-1,2,3,4-tetrahydropyrido[4,3-d]pyrimidin-7-yl)methyl)acrylamide]: the IC50 (as a rule, the midpoint of a concentration-inhibition curve) is > 200 nM at FGFR2, > 200 nM against FGFR3, > 200 nM at FGFR1 and 10 to 30 nM at FGFR4.

With `C=CC(=O)NCc1cc2c(cn1)CN(c1c(F)c(OC)cc(OC)c1F)C(=O)N2C[C@H]1CCOC1` [Example 19, (R)—N-((3-(2,6-difluoro-3,5-dimethoxyphenyl)-2-oxo-1-((tetrahydrofuran-3-yl)methyl)-1,2,3,4-tetrahydropyrido[4,3-d]pyrimidin-7-yl)methyl)acrylamide], the IC50 on FGFR2 is > 200 nM; against FGFR3 it was > 200 nM; at FGFR1, > 200 nM; on FGFR4 (setting [1]) it was < 10 nM.

`C=CC(=O)NCc1cc2c(cn1)CN(c1c(F)c(OC)cc(OC)c1F)C(=O)N2CC#N` [Example 20, N-((1-(cyanomethyl)-3-(2,6-difluoro-3,5-dimethoxyphenyl)-2-oxo-1,2,3,4-tetrahydropyrido[4,3-d]pyrimidin-7-yl)methyl)acrylamide]: the IC50 on FGFR2 was > 200 nM; against FGFR3, > 200 nM; at FGFR1, > 200 nM; at FGFR4 (setting [1]), < 10 nM.

Regarding `C=CC(=O)NCc1cc2c(cn1)CN(c1c(F)c(OC)cc(OC)c1F)C(=O)N2CC(F)(F)F` [Example 21, N-((3-(2,6-difluoro-3,5-dimethoxyphenyl)-2-oxo-1-(2,2,2-trifluoroethyl)-1,2,3,4-tetrahydropyrido[4,3-d]pyrimidin-7-yl)methyl)acrylamide], the IC50 at FGFR2 is > 200 nM; at FGFR3, > 200 nM; at FGFR1, > 200 nM; at FGFR4 (setting [1]), < 10 nM.

`C=CC(=O)NCc1cc2c(cn1)CN(c1c(F)c(OC)cc(OC)c1F)C(=O)N2C` [Example 22, N-((3-(2,6-difluoro-3,5-dimethoxyphenyl)-1-methyl-2-oxo-1,2,3,4-tetrahydropyrido[4,3-d]pyrimidin-7-yl)methyl)acrylamide]: the IC50 on FGFR2 is > 200 nM; against FGFR3 it was > 200 nM; at FGFR1, > 200 nM; on FGFR4, 10 to 30 nM.

Regarding `C=CC(=O)NCc1cc2c(cn1)CN(c1c(F)c(OC)cc(OC)c1F)C(=O)C2(C)C` [Example 24, N-((7-(2,6-difluoro-3,5-dimethoxyphenyl)-5,5-dimethyl-6-oxo-5,6,7,8-tetrahydro-2,7-naphthyridin-3-yl)methyl)acrylamide], the half-inhibitory concentration (IC50) at FGFR2 is […]; at FGFR3 it was […]; at FGFR1, […]; at FGFR4 (setting [1]), […].

For `C=CC(=O)NCc1cc2c(cn1)CN(c1c(F)c(OC)cc(OC)c1F)C(=O)N2C1CCC1` [Example 25, N-((1-cyclobutyl-3-(2,6-difluoro-3,5-dimethoxyphenyl)-2-oxo-1,2,3,4-tetrahydropyrido[4,3-d]pyrimidin-7-yl)methyl)acrylamide], the IC50 on FGFR2 was > 200 nM; against FGFR3, > 200 nM; at FGFR1, > 200 nM; on FGFR4 it was 10 to 30 nM.

For the molecule `C=CC(=O)NCc1cc2c(cn1)CN(c1c(F)c(OC)cc(OC)c1F)C(=O)N2c1ccncc1` [Example 26, N-((3-(2,6-difluoro-3,5-dimethoxyphenyl)-2-oxo-1-(pyridin-4-yl)-1,2,3,4-tetrahydropyrido[4,3-d]pyrimidin-7-yl)methyl)acrylamide], the IC50 on FGFR2 is > 200 nM; against FGFR3, > 200 nM; at FGFR1, > 200 nM; at FGFR4 it was 10 to 30 nM.

On to `C=CC(=O)NCc1cc2c(cn1)CN(c1c(F)c(OC)cc(OC)c1F)C(=O)N2CCF` [Example 27, N-((3-(2,6-difluoro-3,5-dimethoxyphenyl)-1-(2-fluoroethyl)-2-oxo-1,2,3,4-tetrahydropyrido[4,3-d]pyrimidin-7-yl)methyl)acrylamide], for which the IC50 on FGFR2 is > 200 nM; on FGFR3, > 200 nM; on FGFR1 it was > 200 nM; on FGFR4 (setting [1]) it was < 10 nM.

Regarding `C=CC(=O)NCc1cc2c(cn1)CN(c1c(F)c(OC)cc(OC)c1F)C(=O)N2C[C@@H]1CCOC1` [Example 31, (S)—N-((3-(2,6-difluoro-3,5-dimethoxyphenyl)-2-oxo-1-((tetrahydrofuran-3-yl)methyl)-1,2,3,4-tetrahydropyrido[4,3-d]pyrimidin-7-yl)methyl)acrylamide], the IC50 on FGFR2 was > 200 nM; at FGFR3, > 200 nM; on FGFR1, > 200 nM; at FGFR4 (setting [1]), < 10 nM.

As to `C=CC(=O)NCc1cc2c(cn1)CN(c1c(F)c(OC)cc(OC)c1F)C(=O)N2CC1CCN(C)CC1` [Example 32, N-((3-(2,6-difluoro-3,5-dimethoxyphenyl)-1-((1-methylpiperidin-4-yl)methyl)-2-oxo-1,2,3,4-tetrahydropyrido[4,3-d]pyrimidin-7-yl)methyl)acrylamide], the IC50 at FGFR2 is […]; against FGFR3, […]; on FGFR1, […]; at FGFR4 (setting [1]), […].

Turning to `C=CC(=O)NCc1cc2c(cn1)CN(c1c(F)c(OC)cc(OC)c1F)C(=O)N2CC1CCN(C(=O)NC(C)C)CC1` [Example 34, 4-((7-(acrylamidomethyl)-3-(2,6-difluoro-3,5-dimethoxyphenyl)-2-oxo-3,4-dihydropyrido[4,3-d]pyrimidin-1(2H)-yl)methyl)-N-isopropylpiperidine-1-carboxamide], the IC50 at FGFR2 was > 200 nM; on FGFR3, > 200 nM; on FGFR1, > 200 nM; on FGFR4 (setting [1]), < 10 nM.

Regarding `C=CC(=O)NCc1cc2c(cn1)CN(c1c(F)c(OC)cc(OC)c1F)C(=O)N2CC1CCN(S(C)(=O)=O)CC1` [Example 35, N-((3-(2,6-difluoro-3,5-dimethoxyphenyl)-1-((1-(methylsulfonyl)piperidin-4-yl)methyl)-2-oxo-1,2,3,4-tetrahydropyrido[4,3-d]pyrimidin-7-yl)methyl)acrylamide], the half-inhibitory concentration (IC50) at FGFR2 is > 200 nM; against FGFR3 it was > 200 nM; at FGFR1, > 200 nM; on FGFR4 (setting [1]), < 10 nM.

As to `C=CC(=O)NCc1cc2c(cn1)CN(c1c(Cl)c(OC)cc(OC)c1Cl)C(=O)N2CC` [Example 36, N-((3-(2,6-dichloro-3,5-dimethoxyphenyl)-1-ethyl-2-oxo-1,2,3,4-tetrahydropyrido[4,3-d]pyrimidin-7-yl)methyl)acrylamide], the IC50 at FGFR2 was > 200 nM; on FGFR3 it was > 200 nM; at FGFR1, > 200 nM; at FGFR4 (setting [1]) it was < 10 nM.

On to `C=CC(=O)NCc1ncc2c(c1C)C1(CC1)C(=O)N(c1c(F)c(OC)cc(OC)c1F)C2` [Example 37, N-((2′-(2,6-difluoro-3,5-dimethoxyphenyl)-5′-methyl-3′-oxo-2′,3′-dihydro-1′H-spiro[cyclopropane-1,4′-[2,7]naphthyridine]-6′-yl)methyl)acrylamide], for which the concentration for half-maximal inhibition (IC50) on FGFR2 was > 200 nM; at FGFR3, > 200 nM; on FGFR1, > 200 nM; against FGFR4, 10 to 30 nM.

These data come from US9890156B2, “Bicyclic heterocycles as FGFR4 inhibitors” (Incyte Corporation, priority 2015, dated 2018).
